This is an account of results in PMC7026418, “The kinase polypharmacology landscape of clinical PARP inhibitors” (Scientific Reports, 2020).

Targets include EGFR(G719C) (Homo sapiens, UniProt P00533, G719C); LIMK2 (Homo sapiens, UniProt P53671); PAK3 (Homo sapiens, UniProt O75914); ALK(C1156Y) (Homo sapiens, UniProt Q9UM73, C1156Y); SRMS (Homo sapiens, UniProt Q9H3Y6); EGFR(E746-A750del) (Homo sapiens, UniProt P00533, DEL746-750).
What all share (assay): biochemical
Common to all, as to set-up: DiscoveRx KINOMEscan active site-directed competition binding; percent of control kinase bound to immobilised ligand

The next experiment has as its target T1, SNARK (Homo sapiens, UniProt Q9H093).
T1 construct: gene NUAK2
T1 sequence (Q9H093 1-628): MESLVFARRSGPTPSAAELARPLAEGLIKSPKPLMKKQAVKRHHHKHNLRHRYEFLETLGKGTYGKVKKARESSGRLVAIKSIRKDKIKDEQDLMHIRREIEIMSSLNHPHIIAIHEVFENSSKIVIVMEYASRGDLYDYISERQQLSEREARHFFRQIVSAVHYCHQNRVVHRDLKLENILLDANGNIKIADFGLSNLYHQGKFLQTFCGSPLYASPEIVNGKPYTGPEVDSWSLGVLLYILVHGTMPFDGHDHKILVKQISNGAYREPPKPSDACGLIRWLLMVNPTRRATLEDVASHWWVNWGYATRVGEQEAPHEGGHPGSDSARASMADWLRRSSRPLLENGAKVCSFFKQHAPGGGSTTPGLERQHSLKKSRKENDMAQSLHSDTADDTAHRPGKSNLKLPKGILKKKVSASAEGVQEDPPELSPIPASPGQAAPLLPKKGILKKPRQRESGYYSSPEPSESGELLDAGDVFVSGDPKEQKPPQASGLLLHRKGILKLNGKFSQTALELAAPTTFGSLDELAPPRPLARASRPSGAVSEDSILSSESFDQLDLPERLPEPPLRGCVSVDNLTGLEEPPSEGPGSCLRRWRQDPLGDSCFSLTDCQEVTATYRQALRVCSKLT

The target of a further experiment is T2, ACVR1 (Homo sapiens, UniProt Q04771).
T2 sequence (Q04771 1-509): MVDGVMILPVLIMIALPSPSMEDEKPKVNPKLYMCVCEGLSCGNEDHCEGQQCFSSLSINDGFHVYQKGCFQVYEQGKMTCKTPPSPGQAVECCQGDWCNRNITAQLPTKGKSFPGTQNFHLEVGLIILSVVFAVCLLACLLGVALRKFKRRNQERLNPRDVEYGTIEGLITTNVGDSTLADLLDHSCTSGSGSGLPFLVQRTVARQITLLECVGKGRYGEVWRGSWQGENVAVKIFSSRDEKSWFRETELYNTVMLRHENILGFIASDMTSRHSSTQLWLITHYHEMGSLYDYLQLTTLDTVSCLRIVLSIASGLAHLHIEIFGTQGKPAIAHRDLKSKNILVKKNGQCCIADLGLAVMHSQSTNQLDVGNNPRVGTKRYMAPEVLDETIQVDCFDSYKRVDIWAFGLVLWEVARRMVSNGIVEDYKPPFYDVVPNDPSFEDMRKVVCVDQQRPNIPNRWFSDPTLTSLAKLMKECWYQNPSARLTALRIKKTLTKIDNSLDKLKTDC

A further experiment concerns the target T3, BMX (Homo sapiens, UniProt P51813).
T3 sequence (P51813 1-675): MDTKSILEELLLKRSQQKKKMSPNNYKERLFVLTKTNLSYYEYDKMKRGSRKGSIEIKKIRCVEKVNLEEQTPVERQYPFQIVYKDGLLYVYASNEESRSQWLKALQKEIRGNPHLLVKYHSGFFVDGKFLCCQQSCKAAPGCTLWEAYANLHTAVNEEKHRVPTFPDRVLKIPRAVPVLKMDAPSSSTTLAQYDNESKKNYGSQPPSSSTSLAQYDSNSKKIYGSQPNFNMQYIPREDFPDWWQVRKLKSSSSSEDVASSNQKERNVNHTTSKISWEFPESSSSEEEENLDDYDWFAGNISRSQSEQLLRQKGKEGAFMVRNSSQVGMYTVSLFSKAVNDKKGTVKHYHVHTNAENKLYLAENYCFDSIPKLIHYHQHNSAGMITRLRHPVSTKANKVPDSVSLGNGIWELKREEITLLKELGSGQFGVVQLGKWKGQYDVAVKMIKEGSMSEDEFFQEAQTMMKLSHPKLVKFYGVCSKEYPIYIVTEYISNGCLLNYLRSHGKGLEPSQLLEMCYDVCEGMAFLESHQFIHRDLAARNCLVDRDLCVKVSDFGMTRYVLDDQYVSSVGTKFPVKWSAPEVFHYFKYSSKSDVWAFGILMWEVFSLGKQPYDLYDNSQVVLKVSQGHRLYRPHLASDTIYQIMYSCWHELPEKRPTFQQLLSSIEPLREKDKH

The mark [1] stands for this setting: read-out: Niraparib (MK-4827) / %Ctrl @ 10000nM.
[2] abbreviates: read-out: Olaparib / %Ctrl @ 10000nM.
The mark [3] stands for this setting: read-out: Rucaparib / %Ctrl @ 10000nM, binding competition, % of control.
Setting [4] is: read-out: Talazoparib (BMN 673) / %Ctrl @ 10000nM.

The structures appear in SMILES notation. Where two headings read alike, the source gives them in different places.

Sequence of LIMK2 (P53671 whole entry): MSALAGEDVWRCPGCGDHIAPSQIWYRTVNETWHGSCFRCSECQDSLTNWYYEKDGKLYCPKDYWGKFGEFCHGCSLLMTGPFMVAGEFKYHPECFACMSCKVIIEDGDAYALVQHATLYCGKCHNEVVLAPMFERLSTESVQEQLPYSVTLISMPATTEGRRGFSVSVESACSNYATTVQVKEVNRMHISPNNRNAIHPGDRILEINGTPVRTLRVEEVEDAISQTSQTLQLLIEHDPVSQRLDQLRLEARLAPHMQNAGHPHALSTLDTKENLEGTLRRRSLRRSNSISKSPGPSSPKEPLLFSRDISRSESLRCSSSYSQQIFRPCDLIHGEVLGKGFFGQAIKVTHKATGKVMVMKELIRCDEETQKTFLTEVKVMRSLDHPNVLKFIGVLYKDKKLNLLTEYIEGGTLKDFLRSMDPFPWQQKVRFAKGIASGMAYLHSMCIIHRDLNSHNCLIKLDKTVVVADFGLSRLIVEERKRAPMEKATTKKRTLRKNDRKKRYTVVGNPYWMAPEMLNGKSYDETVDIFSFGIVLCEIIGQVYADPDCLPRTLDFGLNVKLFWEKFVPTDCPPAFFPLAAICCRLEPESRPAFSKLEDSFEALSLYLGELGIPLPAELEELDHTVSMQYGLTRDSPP
Sequence of ALK(C1156Y) (Q9UM73 whole entry C1156Y): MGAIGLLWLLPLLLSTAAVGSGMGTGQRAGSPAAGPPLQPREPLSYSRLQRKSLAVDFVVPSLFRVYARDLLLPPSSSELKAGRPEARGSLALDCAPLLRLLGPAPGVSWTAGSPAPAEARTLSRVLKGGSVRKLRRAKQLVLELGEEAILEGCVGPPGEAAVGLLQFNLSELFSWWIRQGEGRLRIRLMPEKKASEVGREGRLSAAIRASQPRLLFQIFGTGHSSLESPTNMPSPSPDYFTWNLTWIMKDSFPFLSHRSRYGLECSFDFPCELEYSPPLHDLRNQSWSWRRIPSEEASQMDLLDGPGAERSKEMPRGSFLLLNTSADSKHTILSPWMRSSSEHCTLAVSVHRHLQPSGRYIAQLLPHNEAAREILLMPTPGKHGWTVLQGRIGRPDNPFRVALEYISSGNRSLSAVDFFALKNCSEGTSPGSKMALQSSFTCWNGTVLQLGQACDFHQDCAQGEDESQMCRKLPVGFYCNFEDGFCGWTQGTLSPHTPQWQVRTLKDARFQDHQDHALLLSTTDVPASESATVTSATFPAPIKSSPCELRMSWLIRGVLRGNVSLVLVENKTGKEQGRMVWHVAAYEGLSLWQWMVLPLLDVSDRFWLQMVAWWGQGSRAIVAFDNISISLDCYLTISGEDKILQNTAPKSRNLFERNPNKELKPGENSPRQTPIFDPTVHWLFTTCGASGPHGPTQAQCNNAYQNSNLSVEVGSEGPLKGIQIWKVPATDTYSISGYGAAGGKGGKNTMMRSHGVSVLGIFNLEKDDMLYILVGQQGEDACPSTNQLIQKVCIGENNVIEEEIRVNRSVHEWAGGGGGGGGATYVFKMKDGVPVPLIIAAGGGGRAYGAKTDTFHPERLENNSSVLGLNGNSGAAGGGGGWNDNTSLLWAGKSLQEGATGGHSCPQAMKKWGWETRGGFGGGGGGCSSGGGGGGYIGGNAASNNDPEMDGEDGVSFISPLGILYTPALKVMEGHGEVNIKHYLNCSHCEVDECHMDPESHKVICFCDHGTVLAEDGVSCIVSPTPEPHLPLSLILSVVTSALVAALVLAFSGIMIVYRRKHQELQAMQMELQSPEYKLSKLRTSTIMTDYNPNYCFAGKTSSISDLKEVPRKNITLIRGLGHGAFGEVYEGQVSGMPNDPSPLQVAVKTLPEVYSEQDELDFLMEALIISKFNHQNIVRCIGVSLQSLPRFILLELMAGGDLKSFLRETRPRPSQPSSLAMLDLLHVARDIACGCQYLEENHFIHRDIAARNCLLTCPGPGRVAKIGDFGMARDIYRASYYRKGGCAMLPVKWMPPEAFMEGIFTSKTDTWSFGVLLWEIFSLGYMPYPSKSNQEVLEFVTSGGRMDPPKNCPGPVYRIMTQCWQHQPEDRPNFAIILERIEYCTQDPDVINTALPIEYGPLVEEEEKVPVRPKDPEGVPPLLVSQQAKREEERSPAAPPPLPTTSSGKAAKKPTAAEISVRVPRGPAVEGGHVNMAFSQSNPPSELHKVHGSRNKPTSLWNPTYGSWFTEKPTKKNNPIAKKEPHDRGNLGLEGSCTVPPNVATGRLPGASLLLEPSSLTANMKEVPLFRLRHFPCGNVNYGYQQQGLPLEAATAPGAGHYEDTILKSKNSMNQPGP
Sequence of SRMS (Q9H3Y6 whole entry): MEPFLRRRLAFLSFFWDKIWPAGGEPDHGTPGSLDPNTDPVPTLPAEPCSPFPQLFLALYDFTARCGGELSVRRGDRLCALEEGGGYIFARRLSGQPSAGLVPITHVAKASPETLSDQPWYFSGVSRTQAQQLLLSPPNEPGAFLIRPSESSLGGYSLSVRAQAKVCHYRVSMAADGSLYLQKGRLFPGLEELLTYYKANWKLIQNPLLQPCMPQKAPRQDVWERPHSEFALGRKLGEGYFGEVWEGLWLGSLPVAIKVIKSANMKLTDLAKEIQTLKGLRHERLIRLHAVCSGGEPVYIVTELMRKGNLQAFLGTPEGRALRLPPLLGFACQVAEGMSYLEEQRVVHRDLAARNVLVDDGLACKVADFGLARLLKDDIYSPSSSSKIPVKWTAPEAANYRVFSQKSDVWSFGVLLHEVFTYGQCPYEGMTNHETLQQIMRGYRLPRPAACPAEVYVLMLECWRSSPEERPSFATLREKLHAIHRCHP
Sequence of EGFR(G719C) (P00533 whole entry G719C): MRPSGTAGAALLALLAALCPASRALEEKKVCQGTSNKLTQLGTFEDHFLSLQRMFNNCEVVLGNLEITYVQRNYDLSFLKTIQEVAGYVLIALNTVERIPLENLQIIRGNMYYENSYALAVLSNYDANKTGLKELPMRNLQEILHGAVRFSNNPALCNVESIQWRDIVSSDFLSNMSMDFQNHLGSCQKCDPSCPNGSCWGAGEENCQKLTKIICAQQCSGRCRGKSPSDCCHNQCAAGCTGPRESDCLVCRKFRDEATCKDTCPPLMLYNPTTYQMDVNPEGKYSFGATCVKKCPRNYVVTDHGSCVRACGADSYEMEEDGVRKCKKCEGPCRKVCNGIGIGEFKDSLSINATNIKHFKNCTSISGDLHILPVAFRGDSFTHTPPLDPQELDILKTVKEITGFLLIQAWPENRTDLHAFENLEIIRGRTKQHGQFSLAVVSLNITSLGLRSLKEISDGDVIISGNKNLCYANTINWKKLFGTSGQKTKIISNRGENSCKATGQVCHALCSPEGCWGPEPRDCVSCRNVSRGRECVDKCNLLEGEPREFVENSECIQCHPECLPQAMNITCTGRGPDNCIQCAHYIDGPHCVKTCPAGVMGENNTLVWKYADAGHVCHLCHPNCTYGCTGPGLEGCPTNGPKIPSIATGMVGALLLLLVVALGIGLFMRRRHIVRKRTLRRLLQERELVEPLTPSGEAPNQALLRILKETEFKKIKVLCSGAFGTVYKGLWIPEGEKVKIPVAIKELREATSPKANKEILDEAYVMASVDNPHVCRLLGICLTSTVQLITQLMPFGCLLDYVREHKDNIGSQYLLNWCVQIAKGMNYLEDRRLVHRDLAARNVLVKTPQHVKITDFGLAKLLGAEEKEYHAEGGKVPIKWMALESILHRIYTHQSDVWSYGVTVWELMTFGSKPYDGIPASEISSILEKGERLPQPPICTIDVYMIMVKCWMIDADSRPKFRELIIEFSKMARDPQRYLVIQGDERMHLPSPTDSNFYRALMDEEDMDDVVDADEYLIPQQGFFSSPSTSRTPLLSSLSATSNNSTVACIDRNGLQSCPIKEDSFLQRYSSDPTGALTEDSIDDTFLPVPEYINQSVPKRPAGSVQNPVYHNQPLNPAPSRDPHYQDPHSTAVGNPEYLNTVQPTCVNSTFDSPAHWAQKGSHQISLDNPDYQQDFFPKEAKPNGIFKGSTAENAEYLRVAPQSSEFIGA
Sequence of PAK3 (O75914 whole entry): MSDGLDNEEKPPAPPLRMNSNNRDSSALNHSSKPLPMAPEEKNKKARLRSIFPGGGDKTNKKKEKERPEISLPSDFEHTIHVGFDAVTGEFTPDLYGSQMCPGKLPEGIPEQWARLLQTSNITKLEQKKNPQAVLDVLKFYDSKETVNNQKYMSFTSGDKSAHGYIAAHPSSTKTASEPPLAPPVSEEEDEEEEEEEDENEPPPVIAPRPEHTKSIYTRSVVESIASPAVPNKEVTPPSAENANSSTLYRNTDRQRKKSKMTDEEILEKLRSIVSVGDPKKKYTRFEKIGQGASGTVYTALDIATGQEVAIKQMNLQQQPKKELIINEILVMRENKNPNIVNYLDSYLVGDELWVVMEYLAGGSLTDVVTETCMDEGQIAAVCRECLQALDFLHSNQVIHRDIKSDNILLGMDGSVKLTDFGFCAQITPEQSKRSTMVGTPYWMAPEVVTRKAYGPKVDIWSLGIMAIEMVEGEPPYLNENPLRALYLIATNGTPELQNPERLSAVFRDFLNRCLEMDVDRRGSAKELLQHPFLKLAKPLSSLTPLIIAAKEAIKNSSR

In the case of `NC(=O)c1cccc2cn(-c3ccc([C@@H]4CCCNC4)cc3)nc12` [Niraparib], the percent of control binding at 10 µM at SNARK (setting [1]) amounted to 98%; on EGFR(G719C) (setting [1]), 86%; at LIMK2 (setting [1]), 91%; on ACVR1 (setting [1]) it was 83%; at PAK3 (setting [1]) it was 67%; on ALK(C1156Y) (setting [1]), 88%. Moreover, the percent of control binding at 10 µM on SRMS (setting [1]) amounted to 100%; at BMX (setting [1]), 87%; on EGFR(E746-A750del) (setting [1]), 96%.

For the molecule `O=C(c1cc(Cc2n[nH]c(=O)c3ccccc23)ccc1F)N1CCN(C(=O)C2CC2)CC1` [Olaparib], the percent of control binding at 10 µM on SNARK (setting [2]) was determined as 72%; on EGFR(G719C) (setting [2]), 98%; at LIMK2 (setting [2]), 100%; on ACVR1 (setting [2]), 96%; on PAK3 (setting [2]), 96%; on ALK(C1156Y) (setting [2]), 88%. Also, the percent of control binding at 10 µM at SRMS (setting [2]) came to 92%; at BMX (setting [2]) it was 98%; on EGFR(E746-A750del) (setting [2]) it was 97%.

For the molecule `CNCc1ccc(-c2[nH]c3cc(F)cc4c3c2CCNC4=O)cc1` [Rucaparib], the percent of control binding at 10 µM on SNARK (setting [3]) was 50%; at EGFR(G719C) (setting [3]), 82%; on LIMK2 (setting [3]), 96%; on ACVR1 (setting [3]), 92%; at PAK3 (setting [3]) it was 95%; on ALK(C1156Y) (setting [3]), 43%. Further, the results for the percent of control binding at 10 µM at SRMS (setting [3]), on BMX (setting [3]) and at EGFR(E746-A750del) (setting [3]) were 79%, 91% and 81%, respectively.

As to `Cn1ncnc1[C@H]1c2n[nH]c(=O)c3cc(F)cc(c23)N[C@@H]1c1ccc(F)cc1` [Talazoparib], the percent of control binding at 10 µM on SNARK (setting [4]) stood at 100%; on EGFR(G719C) (setting [4]), 99%; on LIMK2 (setting [4]), 100%; at ACVR1 (setting [4]), 95%; at PAK3 (setting [4]), 100%; on ALK(C1156Y) (setting [4]), 100%. Moreover, the percent of control binding at 10 µM at SRMS (setting [4]), on BMX (setting [4]) and at EGFR(E746-A750del) (setting [4]) was 100% throughout.
